In patent US20110207729A1, “BICYCLIC ACYLGUANIDINE DERIVATIVE” (ASTELLAS PHARMA INC., priority 2007, published 2011) one finds Ki data, which are given here for 58 molecules.

Each structure is given as a SMILES string. Where a name gives a salt, the structure may show the parent alone.

T1 sequence (P47898 whole entry): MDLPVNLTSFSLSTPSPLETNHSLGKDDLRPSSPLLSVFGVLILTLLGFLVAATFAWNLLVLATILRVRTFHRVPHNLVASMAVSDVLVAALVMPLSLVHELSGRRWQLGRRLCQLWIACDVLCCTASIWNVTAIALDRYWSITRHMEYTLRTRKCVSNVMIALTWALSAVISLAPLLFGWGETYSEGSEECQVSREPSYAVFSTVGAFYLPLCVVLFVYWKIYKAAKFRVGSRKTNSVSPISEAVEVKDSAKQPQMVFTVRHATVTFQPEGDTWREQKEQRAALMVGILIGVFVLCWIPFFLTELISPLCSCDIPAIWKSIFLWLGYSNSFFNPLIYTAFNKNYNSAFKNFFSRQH

This assay has as its target T1, human 5-HT5A receptor (Homo sapiens, UniProt P47898).
T1 construct: expressed in transfected cells; membrane preparation
Nature of the assay: Test on a human 5-HT5A receptor binding inhibition ([3H]5-CT). To be noted: membrane from HEK293 cells expressing human 5-HT5A receptor; Ki calculated from IC50 and Kd 4.95 nM. As to the method:
Acquisition of HEK293 cells for forced expressions of a human 5-HT5A receptor
The ORF (open reading frame; protein coding region) of a human 5-HT5A receptor (Genbank AF498985) was cloned from a human hippocampus cDNA library, and then inserted into a pCR2.1 vector (Invitrogen), and Escherichia coli containing the plasmid was cultured in a large amount. Next, the full-length cDNA sequence of the human 5-HT5A receptor was analyzed, and recombined into a pcDNA3.1 vector (Invitrogen) as an expression vector and cultured in a large amount. HEK293 established cells (ATCC) derived from the human fetal kidney were seeded, the expression plasmid (1 μg) obtained above were added thereto with LIPOFECTAMINE 2000 (Invitrogen; 2 μl), the gene was transfected into HEK293 cells, and the expression cells were screened with a drug-resistant marker, Geneticin (G418 sulfate 500 μg/ml; Kanto Chemical Co., Inc.). Thus prepared recombinant cells which express the gene were cultured in a medium containing D-MEM (Dulbecco's modified eagle medium, Sigma), 10% FCS (Fetal calf serum: fetal bovine serum), 1% Pc./Sm (Penicillin/Streptomycin, Invitrogen), and 500 μg/ml G418 for 3 days. These experimental operations follow an manual for gene operation experiment and an instruction appended in a reagent, and the like, such as a known method (Sambrook, J. et al, Molecular Cloning—A Laboratory Manual”, Cold Spring Harabor laboratory, NY, 1989).
(1) Preparation of a Membrane from HEK293 Cells for Forced Expressions of a Human 5-HT5A Receptor
HEK293 cells for forced expressions of a human 5-HT5A receptor were cultured in a F500 plate, and scraped with a scraper. After centrifugation, a precipitate was collected, and an incubation buffer (50 mM Tris (HCl) (pH 7.4), 10 mM MgSO4, and 0.5 mM EDTA (ethylenediamine tetraacetic acid)) were added thereto. After homogenization, it was further centrifuged, and the precipitate was added with the incubation buffer, followed by thoroughly suspending. This operation was repeated, and a protein concentration was measured, thereby completing the preparation of a membrane.
(2) Test on a Human 5-HT5A Receptor Binding Inhibition
A solution of a compound to be tested and 100 μM 5-CT (5-carboxamidetriptamine) in DMSO was added to a 96-well plate at 2 μl/well, and suspended in an incubation buffer, and a membrane from HEK293 cells for forced expressions of a human 5-HT5A receptor prepared at 200 μg/ml was added at 100 μl/well. After incubation at room temperature for 15 minutes, a [^3H]5-CT solution (2 nM [^3H]5-CT, incubation buffer) was added thereto at 100 μl/well.
Separately, 100 μl of the solution was distributed into a liquid scintillation vial, and 2 ml of Aquasol II (registered trademark) was added thereto, followed by stirring. Then, a radioactivity was measured by a liquid scintillation counter. It was incubated at 37° C. for 60 minutes. The reaction mixture was sucked into 96-well GF/C filter plate that had been pre-treated with 0.2% polyethyleneimine, and washed six times with an ice-cooled, 50 mM Tris (pH 7.5) buffer. The GF/C filter plate was dried.
Microscint TMPS (registered trademark) was added thereto at 40 μl/well. A radioactivity remaining on the GF/C filter plate was measured by a top counter.
The [^3H]5-CT binding inhibiting activity by the compound to be tested in each experiment was determined as an IC50 value with a radioactivity upon addition of DMSO alone being 0% inhibition, and a radioactivity upon addition of 1 μM 5-CT being 100% inhibition. Separately, a Ki value was calculated from the Kd value of the [^3H]5-CT determined from Scatchard analysis, by the following equation.
Ki=IC50(1+Concentration of ligands added/Kd(4.95 nM))
As a reminder, the Ki is the equilibrium dissociation constant of an inhibitor or competing ligand from its target. Consider `COc1cc(F)ccc1C1=C(C)CCc2ccc(C(=O)N=C(N)N)cc21` [Example 2-71], for which the Ki was 3 to 30 nM. The result for `COc1ccc(-c2csc3ccc(C(=O)N=C(N)N)cc23)cc1` [Example 3-24] reads 3 to 30 nM; that for `NC(N)=NC(=O)c1ccc2c(c1)C(c1ccc(F)cc1Cl)=CCC2` [Example 2-70], 0.3 to 3 nM; that for `NC(N)=NC(=O)c1ccc2c(c1)C(c1c(F)cc(F)cc1F)=CC1(CCCC1)O2` [Example 1-121], 3 to 30 nM. Then `CC1=C(c2ccc(C)nc2)c2cc(C(=O)N=C(N)N)ccc2CC1` [Example 2-141], with 3 to 30 nM. Consider `NC(N)=NC(=O)c1ccc2c(c1)C(c1c(F)cccc1F)=CCC2` [Example 2-105], for which the Ki is 0.3 to 3 nM. For `COc1ccccc1C1=C(C)CCc2ccc(C(=O)N=C(N)N)cc21` [Example 2-58], the Ki is 3 to 30 nM. Take `NC(=O)c1cccc(C2=CCCc3ccc(C(=O)N=C(N)N)cc32)c1` [Example 2-30]: the Ki is 30 to 300 nM.

On to `NC(N)=NC(=O)c1ccc2c(c1)C(c1ccncc1)=CCC2` [Example 2-49], for which the Ki was 3 to 30 nM. `N#Cc1cc(F)ccc1C1=CCOc2ccc(C(=O)N=C(N)N)cc21` [Example 1-48]: the Ki is 3 to 30 nM. As to `Cc1cc(Cl)ccc1C1=CCCc2ccc(C(=O)N=C(N)N)cc21` [Example 2-135], the Ki was 0.3 to 3 nM. Take `COc1ccccc1C1=CCCOc2ccc(C(=O)N=C(N)N)cc21` [Example 3-11]: the Ki was 3 to 30 nM. Then `CC(C)Oc1ccc(C2=CCCc3ccc(C(=O)N=C(N)N)cc32)cc1` [Example 2-88], with 30 to 300 nM; and `COc1cc2c(cc1C(=O)N=C(N)N)C(c1c(F)cc(F)cc1F)=CCO2` [Example 1-118], with 0.3 to 3 nM. Regarding `NC(N)=NC(=O)c1ccc2c(c1)C(c1ccccc1C(F)(F)F)=CCO2` [Example 1-15], the Ki was 3 to 30 nM. Then `N#Cc1ccc(C2=CCSc3ccc(C(=O)N=C(N)N)cc32)cc1` [Example 3-17], with 3 to 30 nM; and `CCC1=C(c2ccccc2)c2cc(C(=O)N=C(N)N)ccc2CC1` [Example 2-115], with 3 to 30 nM. The result for `NC(N)=NC(=O)c1ccc2c(c1)C(c1ccc(C(F)(F)F)nc1)=CCC2` [Example 2-142] reads 30 to 300 nM; that for `Cc1ccc(C2=CCSc3ccc(C(=O)N=C(N)N)cc32)c(F)c1` [Example 3-15], 3 to 30 nM. The result for `COc1cccc(C#N)c1C1=CC(C)Oc2ccc(C(=O)N=C(N)N)cc21` (stereo not shown) [Example 1-165] reads 30 to 300 nM; that for `CC(C)n1cc(C2=CCCc3ccc(C(=O)N=C(N)N)cc32)cn1` [Example 2-167], 30 to 300 nM. With `COc1ccc(C2=CCCc3ccc(C(=O)N=C(N)N)cc32)c(F)c1` [Example 2-85], the Ki was 0.3 to 3 nM. With `NC(N)=NC(=O)c1ccc2oc(=O)cc(-c3c(F)cc(F)cc3F)c2c1` [Example 1-104], the Ki was 30 to 300 nM. As for `NC(N)=NC(=O)c1ccc2c(c1)C(c1cncc(F)c1)=CCC2` [Example 2-123], the Ki was 30 to 300 nM. Then `NC(N)=NC(=O)c1ccc2c(c1)C(c1ccco1)=CCC2` [Example 2-20], with 3 to 30 nM; and `N#Cc1cc(C2=CCOc3ccc(C(=O)N=C(N)N)cc32)ccc1F` [Example 1-49], with 30 to 300 nM; and `Cn1nccc1C1=CCCc2ccc(C(=O)N=C(N)N)cc21` [Example 2-81], with 3 to 30 nM.

On to `N#CCc1ccccc1C1=CCCc2ccc(C(=O)N=C(N)N)cc21` [Example 2-114], for which the Ki was 30 to 300 nM. In the case of `NC(N)=NC(=O)c1ccc2c(c1)C(c1cc(F)c(F)cc1F)=CCO2` [Example 1-53], the Ki is 3 to 30 nM. As for `NC(N)=NC(=O)c1ccc2c(c1)C(c1ccccn1)=CCC2` [Example 2-89], the Ki was 30 to 300 nM. Then `NC(N)=NC(=O)c1ccc2c(c1)C(c1cccc([N+](=O)[O-])c1)=CCC2` [Example 2-47], with 3 to 30 nM; and `N#Cc1ccc(C2=CCCc3ccc(C(=O)N=C(N)N)cc32)cc1` [Example 2-25], with 0.3 to 3 nM; and `NC(N)=NC(=O)c1ccc2c(c1)C(c1ccoc1)=CCC2` [Example 2-01, N-(diaminomethylene)-8-(3-furyl)-5,6-dihydronaphthalene-2-carboxamide methane sulfonate], with 3 to 30 nM. For the molecule `CC1C=C(c2ccncc2)c2cc(C(=O)N=C(N)N)ccc2O1` (stereo not shown) [Example 1-133], the Ki is 30 to 300 nM. Then `COc1ccc(F)cc1C1=CCOc2ccc(C(=O)N=C(N)N)cc21` [Example 1-50], with 3 to 30 nM; and `COc1ccccc1C1=CCOc2c(F)cc(C(=O)N=C(N)N)cc21` [Example 1-86], with 3 to 30 nM; and `NC(N)=NC(=O)c1ccc2c(c1)C(c1cccc(CO)c1)=CCC2` [Example 2-34], with 3 to 30 nM. The result for `NC(N)=NC(=O)c1ccc2c(c1)C(c1c(F)cc(F)cc1F)CCO2` (stereo not shown) [Example 3-31] reads 3 to 30 nM. Regarding `CC1C=C(c2ccc(Cl)nc2Cl)c2cc(C(=O)N=C(N)N)ccc2O1` (stereo not shown) [Example 1-147], the Ki is 30 to 300 nM. The result for `N#Cc1ccc(C2=C(F)CCc3ccc(C(=O)N=C(N)N)cc32)cc1` [Example 2-91] reads 0.3 to 3 nM. As for `NC(N)=NC(=O)c1ccc2c(c1)C(c1cccc(F)c1Cl)=CCO2` [Example 1-102], the Ki was 0.3 to 3 nM. `NC(N)=NC(=O)c1ccc2c(c1)C(c1ccsc1)=CCC2` [Example 2-19]: the Ki is 0.3 to 3 nM.

For `NC(N)=NC(=O)c1ccc2c(c1)C(c1ccccc1O)=CCC2` [Example 2-50], the Ki was 3 to 30 nM. `N#Cc1ccc(C2=CCOc3c(F)cc(C(=O)N=C(N)N)cc32)cc1` [Example 1-87]: the Ki is 30 to 300 nM. For `NC(N)=NC(=O)c1ccc2c(c1)C(c1ccc(C(F)(F)F)cc1C(F)(F)F)=CCO2` [Example 1-83], the Ki was 30 to 300 nM.

As to `NC(N)=NC(=O)c1ccc2c(c1)C(c1cc(F)ccc1Cl)=CCO2` [Example 1-103], the Ki is 0.3 to 3 nM. The result for `COc1cc(F)cc(F)c1C1=CCCc2ccc(C(=O)N=C(N)N)cc21` [Example 2-179] reads 3 to 30 nM. On to `COc1ccccc1-c1csc2ccc(C(=O)N=C(N)N)cc12` [Example 3-08], for which the Ki is 0.3 to 3 nM. Then `COCCN/C(N)=N/C(=O)c1ccc2c(c1)C(c1c(F)cccc1F)=CCO2` [Example 1-03, N-{1-amino[(2-methoxyethyl)amino]methylene}-4-(2,6-difluorophenyl)-2H-chromene-6-carboxamide hydrochloride], with 3 to 30 nM; and `NC(N)=NC(=O)c1ccc2c(c1)C(c1ccccc1)CCC2` (stereo not shown) [Example 3-02], with 3 to 30 nM; and `NC(N)=NC(=O)c1ccc2c(c1)C(c1ccccc1OC(F)(F)F)=CCC2` [Example 2-98], with 30 to 300 nM. The result for `NC(N)=NC(=O)c1ccc2c(c1)C(C1CCOCC1)=CCC2` [Example 2-31] reads 3 to 30 nM. On to `COc1ncccc1C1=CCCc2ccc(C(=O)N=C(N)N)cc21` [Example 2-140], for which the Ki is 3 to 30 nM. Take `COc1c(F)cccc1-c1csc2ccc(C(=O)N=C(N)N)cc12` [Example 3-27]: the Ki is 3 to 30 nM. Take `NC(N)=NC(=O)c1ccc2c(c1)C(N1CCNCC1)CCC2` (stereo not shown) [Example 3-01, N-(diaminomethylene)-8-piperazin-1-yl-5,6,7,8-tetrahydronaphthalene-2-carboxamide trihydrochloride]: the Ki was 30 to 300 nM.

In the case of `NC(N)=NC(=O)c1ccc2c(c1)C(c1ccc(F)cc1Cl)=CCO2` [Example 1-55], the Ki is 0.3 to 3 nM.

With `NC(N)=NC(=O)c1ccc2occ(-c3ccccc3)c2c1` [Example 3-09], the Ki is 30 to 300 nM. As for `NC(N)=NC(=O)c1ccc2c(c1)C(c1cccc(Cl)c1)=CCC2` [Example 2-10], the Ki is 3 to 30 nM.
